Results taken from US10865238B1, “Complement factor H antibodies” (Duke University, priority 2017, dated 2020).

Assays:
[1] = tested on: A549 cells; experiment: Calreticulin translocation to plasma membrane, A549; format: cell-based, human; settings: A549, NHS, compared to negative controls
Description: (§1) H460 or A549 cells were treated for 2.5 hr with 1, medium; 2, NHS and CFH mAb (200 μg/ml); 3, NHS and IgG (200 μg/ml); or 4, NHS and Doxorubicin (25 μM).
(§2) In order to see if lung tumor cells undergoing CFH mAb-induced CDC send an ICD signal, human lung tumor cell lines (H460 and A549) were incubated in medium containing complement from the addition of NHS, and treated with CFH mAb, control antibody, or the known ICD inducer doxorubicin (Kepp et al. Oncoimmunology 2014; 3:e955691; Krysko et al. Nat Rev Cancer 2012; 12:860-75.). […] Total calreticulin in whole cell lysates was the same under all conditions.

[2] = tested on: H460 cells; experiment: Calreticulin translocation to plasma membrane, H460; format: cell-based, human; settings: H460, NHS, compared to negative controls
Description: as §1, §2

[3] = biological target: T1, reduced Complement Factor H (CFH) (human, UniProt P08603 19-1231, disulfide bonds reduced with TCEP); experiment: western blot (immunoblot) on native and TCEP-reduced CFH
T1 construct: also called reduced CFH; CFH treated with TCEP
T1 sequence (P08603 19-1231 limits assumed): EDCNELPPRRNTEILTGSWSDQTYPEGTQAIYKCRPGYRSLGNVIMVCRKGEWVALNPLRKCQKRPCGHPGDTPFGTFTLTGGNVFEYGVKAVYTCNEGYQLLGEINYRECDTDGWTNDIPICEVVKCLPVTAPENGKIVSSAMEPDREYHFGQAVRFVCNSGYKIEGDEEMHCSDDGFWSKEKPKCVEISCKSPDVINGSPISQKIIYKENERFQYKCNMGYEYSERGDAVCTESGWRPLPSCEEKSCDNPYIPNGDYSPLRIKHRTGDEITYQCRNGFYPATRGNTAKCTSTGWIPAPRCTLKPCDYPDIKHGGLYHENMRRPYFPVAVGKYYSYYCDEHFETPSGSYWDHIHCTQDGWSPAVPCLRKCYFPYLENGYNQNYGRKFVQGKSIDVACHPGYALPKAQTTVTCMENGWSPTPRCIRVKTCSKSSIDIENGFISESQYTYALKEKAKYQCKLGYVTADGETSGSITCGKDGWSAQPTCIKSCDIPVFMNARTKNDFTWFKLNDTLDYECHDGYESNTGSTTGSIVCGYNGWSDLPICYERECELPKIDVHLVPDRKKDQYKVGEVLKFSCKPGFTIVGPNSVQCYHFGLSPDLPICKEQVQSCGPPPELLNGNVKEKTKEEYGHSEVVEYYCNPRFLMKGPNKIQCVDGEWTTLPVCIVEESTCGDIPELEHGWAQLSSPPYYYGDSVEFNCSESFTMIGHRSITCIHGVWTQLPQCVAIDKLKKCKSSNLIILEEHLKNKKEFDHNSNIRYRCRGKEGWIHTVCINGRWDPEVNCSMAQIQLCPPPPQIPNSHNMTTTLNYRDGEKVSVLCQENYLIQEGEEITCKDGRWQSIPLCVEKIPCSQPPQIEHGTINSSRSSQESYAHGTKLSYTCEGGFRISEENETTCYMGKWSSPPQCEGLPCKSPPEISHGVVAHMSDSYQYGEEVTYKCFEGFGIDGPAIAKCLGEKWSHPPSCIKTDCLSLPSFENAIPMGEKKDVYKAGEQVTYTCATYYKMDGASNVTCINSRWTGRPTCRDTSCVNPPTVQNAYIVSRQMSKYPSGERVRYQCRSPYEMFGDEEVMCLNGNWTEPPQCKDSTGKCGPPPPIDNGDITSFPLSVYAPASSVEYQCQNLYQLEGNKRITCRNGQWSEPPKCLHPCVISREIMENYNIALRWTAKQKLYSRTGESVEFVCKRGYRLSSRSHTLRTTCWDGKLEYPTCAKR
Description: Equimolar amounts of CFH and SCR19-20 proteins (~150 kDa and ~15 kDa, respectively) were treated with Tris-HCl (oxidized) or TCEP (reduced) prior to electrophoresis. The proteins were transferred to PVDF, and the membranes were placed into a "Surf-Blot" apparatus for immunoblot analysis. […] Binding was visualized with an antihuman IgG-HRP conjugate and chemiluminescent substrate, exposing the entire blot to one piece of film.

binding result [3] | Molecule | plasma membrane calreticulin [1] | plasma membrane calreticulin [2]
– | COc1cccc2c1C(=O)c1c(O)c3c(c(O)c1C2=O)C[C@@](O)(C(=O)CO)C[C@@H]3O[C@H]1C[C@H](N)[C@H](O)[C@H](C)O1 [doxorubicin, reference compound] | increases in plasma membrane calreticulin | increases in plasma membrane calreticulin
binds | Ab7955 (antibody, V domains shown, Recombinant human mAb; also called CFH mAb 7955) VH: LVESGGGVVRPGRSLRLSCVASGFTFNAYGMHWVRQGPGKGLEWLAVISYEGKTVYYADSVKDRFTISRDNSRNTVSLHLNNLRGEDTAVYYCAKGSASAAVLQHWGQGTLVSVTS VL: MTQSPGSLAVSLGSRATINCKSSRSLLYRSNNKNYLAWYQQKPGQSPRLLIYWASSRESGVPDRFSGGGSGTSFTLTISSLQAEDVAVYYCQQYFNPPWTFGQGTKVEIK | – | –
